Measured values reported in publication PMC11222350, “Preclinical evaluation of [^18F]FP-CIT, the radiotracer targeting dopamine transporter for diagnosing Parkinson’s disease: pharmacokinetic and efficacy analysis” (EJNMMI Research, 2024).
Values joined by “and” are separate entries in the source; they are usually repeats but may differ in a detail not shown here. Equal entries are not always repeated.

How the values were obtained:
[1] = Excretion study of [^18F]FP-CIT in urine and feces of normal mice; assay type: in vivo, C57BL/6 mice
Description: For excretion analysis, male C57BL/6 mice (group II) were injected with 37 MBq of [^18F]FP-CIT in the same way described above. The mice were kept in separate cages for urine and feces collection at different time points (1, 2, 3, 4, 5, and 6 h after injection; n = 6 each). Six pieces of absorbent paper were placed in the cages to ensure that all urine samples were absorbed into the paper when the test animals excreted the urine. Fecal samples were collected using felt. The urine remaining in the bladder was collected using a syringe after the mice were sacrificed at the endpoints. The samples collected at each time point were measured using a dose calibrator (CRC-127R; Capintec, Florham Park, NJ, USA). Decay correction of the radioactivity indicated on the dose calibrator at the relevant time points was performed.

dopamine transporter = target: T1, dopamine transporter (Rattus norvegicus, UniProt P23977); test: Animal PET/CT imaging of [^18F]FP-CIT in the 6-OHDA-induced rat model; assay type: in vivo, Sprague–Dawley rats; details: for SUV of lesion site uptake: 37 MBq i.v.
T1 construct: from tissue; host or cells: striatum of living Sprague-Dawley rats (in vivo PET/CT)
T1 sequence (P23977 whole entry): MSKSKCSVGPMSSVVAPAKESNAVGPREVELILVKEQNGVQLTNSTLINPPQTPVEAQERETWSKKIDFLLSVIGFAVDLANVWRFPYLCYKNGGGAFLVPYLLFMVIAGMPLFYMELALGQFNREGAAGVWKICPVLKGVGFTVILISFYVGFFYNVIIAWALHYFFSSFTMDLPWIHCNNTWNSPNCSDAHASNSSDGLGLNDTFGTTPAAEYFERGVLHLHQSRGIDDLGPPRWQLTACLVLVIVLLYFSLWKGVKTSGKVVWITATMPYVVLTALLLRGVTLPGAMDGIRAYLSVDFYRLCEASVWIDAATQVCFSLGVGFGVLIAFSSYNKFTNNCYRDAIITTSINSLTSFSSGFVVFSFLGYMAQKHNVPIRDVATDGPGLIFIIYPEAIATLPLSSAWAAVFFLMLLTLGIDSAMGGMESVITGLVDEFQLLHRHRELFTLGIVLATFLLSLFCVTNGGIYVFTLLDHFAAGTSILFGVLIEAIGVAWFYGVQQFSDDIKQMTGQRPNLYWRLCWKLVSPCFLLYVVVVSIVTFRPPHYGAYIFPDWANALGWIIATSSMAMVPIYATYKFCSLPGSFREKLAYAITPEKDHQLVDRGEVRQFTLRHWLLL
Description: We induced the PD model in rats using 6-OHDA according to a previous study. Briefly, female Sprague–Dawley rats (group IV) were intraperitoneally pretreated with desipramine […] (12.5 mg/kg; 12.5 mg/mL). The rats were anesthetized with 3% isoflurane in oxygen, had their heads shaved, and were placed in a stereotactic frame. A lesion in the right striatum was induced by 6-OHDA injection (4 μg/μL, 2 μL/site in 0.2% ascorbic acid) into four coordinate sites (anterior–posterior (AP) + 1.3, + 0.4, − 0.4, and − 1.3 mm; medial–lateral (ML) − 2.6, − 3.0, − 4.2, and − 4.5 mm; and dorsal–ventral (DV) − 5.0 mm) using a 26G Hamilton syringe at a rate of 1 μL/min (n = 3). The syringe was withdrawn slowly 5 min after the injection, and the wound was sutured. The surgical procedure in the sham group was also performed in the same manner using […] in normal saline instead of 6-OHDA (n = 3). All of the rats were randomly assigned to PD and sham model groups.
To evaluate the uptake targeting efficacy in the striatum, animal PET/CT imaging of [^18F]FP-CIT was performed in the same week following the behavioral tests on the group IV 6-OHDA PD model (PD model and sham model, n = 3 per group). PET/CT images were acquired using nanoScan® PET/CT (Mediso Medical Imaging Systems, Budapest, Hungary). PET image acquisition was performed as previously described. Rats were anesthetized with 2% isoflurane in oxygen, and 37 MBq of [^18F]FP-CIT in 1 mL of saline was intravenously injected via the tail vein using a syringe pump (Pump Elite 11, Harvard Apparatus, USA) over 1 min. Dynamic PET scanning was performed for 60 min with 24 frames ([…], 3 × 60, 4 × 300, and 3 × 600 s). Image scans were acquired in the energy window of 400–600 keV. All images were reconstructed using a three-dimensional ordered subset expectation maximization (3D-OSEM) algorithm with four iterations and six subsets. For attenuation correction and anatomical reference, CT imaging was performed immediately after PET using a 50 kVp of X-ray voltage with 0.16 mAs.
To define the anatomical volumes of interest (VOIs), MR scans were obtained on a 31 cm horizontal-bore Agilent 9.4T scanner (Agilent Technologies, Santa Clara, CA, USA) using a 4-channel array mouse head surface coil following PET/CT imaging (Rapid Biomedical GmbH, Rimpar, Germany) (PD model and sham model, n = 3 each). […] The respiratory rates of the rats were monitored using an MR-compatible physiological monitoring and gating system during image acquisition (SA Instruments Inc., USA).
Each PET image was co-registered with the raw MR image to compare the regional [^18F]FP-CIT uptake in the striatum. […] The obtained uptake value, represented as the standardized uptake value (SUV), was determined for each VOI. […]

COC(=O)[C@H]1[C@@H](c2ccc(I)cc2)C[C@@H]2CC[C@H]1N2CCCF [[^18F]FP-CIT, N-(3-fluoropropyl)-2β-carboxymethoxy-3β-(4-iodophenyl) nortropane]
Accumulated excretion radioactivity (Decay corrected) ([1]; 1 h, Mean ± SD of 6 mice (group II)): 0.03 ± 0.04 mCi
Accumulated excretion radioactivity (Decay corrected) ([1]; 1 h, individual mice no. 1-6 (group II), 37 MBq i.v.): 0.00 mCi and 0.01 mCi and 0.10 mCi and 0.03 mCi and 0.02 mCi
Accumulated excretion radioactivity (Decay corrected) ([1]; 2 h, Mean ± SD of 6 mice (group II)): 0.05 ± 0.04 mCi
Accumulated excretion radioactivity (Decay corrected) ([1]; 2 h, individual mice no. 1-6 (group II), 37 MBq i.v.): 0.07 mCi and 0.01 mCi and 0.11 mCi and 0.02 mCi and 0.05 mCi
Accumulated excretion radioactivity (Decay corrected) ([1]; 3 h, Mean ± SD of 6 mice (group II)): 0.06 ± 0.05 mCi
Accumulated excretion radioactivity (Decay corrected) ([1]; 3 h, individual mice no. 1-6 (group II), 37 MBq i.v.): 0.07 mCi and 0.01 mCi and 0.15 mCi and 0.02 mCi and 0.08 mCi and 0.05 mCi
Accumulated excretion radioactivity (Decay corrected) ([1]; 4 h, Mean ± SD of 6 mice (group II)): 0.08 ± 0.06 mCi
Accumulated excretion radioactivity (Decay corrected) ([1]; 4 h, individual mice no. 1-6 (group II), 37 MBq i.v.): 0.11 mCi and 0.01 mCi and 0.16 mCi and 0.02 mCi and 0.09 mCi and 0.08 mCi
Accumulated excretion radioactivity (Decay corrected) ([1]; 5 h, Mean ± SD of 6 mice (group II)): 0.09 ± 0.05 mCi
Accumulated excretion radioactivity (Decay corrected) ([1]; 5 h, individual mice no. 1-6 (group II), 37 MBq i.v.): 0.11 mCi and 0.04 mCi and 0.17 mCi and 0.02 mCi and 0.09 mCi and 0.08 mCi
Accumulated excretion radioactivity (Decay corrected) ([1]; 6 h, Mean ± SD of 6 mice (group II)): 0.09 ± 0.05 mCi
Accumulated excretion radioactivity (Decay corrected) ([1]; 6 h, individual mice no. 1-6 (group II), 37 MBq i.v.): 0.12 mCi and 0.04 mCi and 0.17 mCi and 0.02 mCi and 0.10 mCi
Excretion ratio ([1]; till 6 h, individual mice no. 1-6 (group II)): 26.99% and 14.17% and 31.89% and 6.20% and 22.94% and 26.58%
time at which transient equilibrium tendency appeared in TACs (dopamine transporter; intact striatum, post-injection): approximately 5 min
reduction of lesion site SUV, PD group vs sham group (dopamine transporter; striatum lesion site): 55.4%
SUV of lesion site uptake (dopamine transporter; striatum lesion site, PD group (6-OHDA)): 1.85 ± 0.13
SUV of lesion site uptake (dopamine transporter; striatum lesion site, sham group): 4.15 ± 0.86
